Results from patent US20190375708A1 (VenatoRx Pharmaceuticals, Inc., priority 2018, published 2019).

Key:
[1] = tested on: HBV replication in HepAD38 cells; assay: Anti-HBV replication assay in HepAD38 cells (QPCR of extracellular HBV DNA); assay type: cell-based, HBV (genotype D, serotype ayw); settings: Hepatitis B virus, 168 h, 7 days incubation, extracellular HBV DNA by QPCR, read-out: Anti-HBV EC50
Outline: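 HepAD38 cells (HepG2 carrying a tet-repressible HBV genotype D genome) were seeded in tetracycline-free medium and treated next day with compound […] for 7 days. Supernatant HBV DNA was measured by QPCR against a standard curve; EC50 came from 4-parameter fits of inhibition versus DMSO control.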

[2] = In vitro cytotoxicity assay (MTT cell viability) in HepG2 cells; assay type: cell-based, human; settings: human
Outline: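 Viability measured by MTT conversion, absorbance at 492 nm, as percent of vehicle-treated wells. Compounds spanned 30 μM to 1.0 nM in half-log steps over a 7-day exposure of parental HepG2 cells; CC50 derived by 4-parameter curve fit.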

| SMILES | EC50 [1] [µM] | CC50 at 7 days [2] [µM] |
| --- | --- | --- |
| Cc1cc(NC(=O)c2c(C)c(C(=O)C(=O)NC3(CO)CC(F)(F)C3)n(C)c2C)cnc1F [Example 184, 5-(2-((3,3-difluoro-1-(hydroxymethyl)cyclobutyl)amino)-2-oxoacetyl)-N-(6-fluoro-5-methylpyridin-3-yl)-1,2,4-trimethyl-1H-pyrrole-3-carboxamide] | < 0.05 | > 30 |
| Cc1cc(NC(=O)c2c(C)c(C(=O)C(=O)N3CCc4nc(N)sc4C3)n(C)c2C)ccc1F [Example 49, 5-(2-(2-amino-6,7-dihydrothiazolo[5,4-c]pyridin-5(4H)-yl)-2-oxoacetyl)-N-(4-fluoro-3-methylphenyl)-1,2,4-trimethyl-1H-pyrrole-3-carboxamide] | 0.05 to 0.499 | > 30 |
| Cc1cc(NC(=O)c2cc(C(=O)C(=O)NC[C@@H](O)CO)n3c2CCCC3)ccc1F [Example 415, (R)-3-(2-((2,3-dihydroxypropyl)amino)-2-oxoacetyl)-N-(4-fluoro-3-methylphenyl)-5,6,7,8-tetrahydroindolizine-1-carboxamide] | > 1 | > 30 |
| Cc1c(C(=O)NC2(C)CCCC2)c2n(c1C(=O)C(=O)NC(C)(C)CO)CCCC2 [Example 753, 3-(2-((1-hydroxy-2-methylpropan-2-yl)amino)-2-oxoacetyl)-2-methyl-N-(1-methylcyclopentyl)-5,6,7,8-tetrahydroindolizine-1-carboamide] | 0.05 to 0.499 | > 30 |
| Cc1cc(NC(=O)c2c(C)c(C(=O)C(=O)NCc3cnc(N)s3)n3c2CCCC3)cnc1F [Example 473, 3-(2-(((2-aminothiazol-5-yl)methyl)amino)-2-oxoacetyl)-N-(6-ffluoro-5-methylpyridin-3-yl)-2-methyl-5,,6,7,8-tetrahydroindolizine--1 carboxamide] | 0.5 to 1 | > 30 |
| Cc1cc(NC(=O)c2c(C)c(C(=O)C(=O)NC3CCN(c4cccnn4)CC3)n(C)c2C)ccc1F [Example 660, N-(4-fluoro-3-methylphenyl)-1,2,4-trimethyl-5-(2-oxo-2-((1-(pyridazin-3-yl)piperidin-4-yl)amino)acetyl)-1H-pyrrole-3-carboxamide] | < 0.05 | > 30 |
| Cc1csc(C2(NC(=O)C(=O)c3c(C)c(C(=O)Nc4ccc(F)c(C)c4)c(C)n3C)CCCC2)n1 [Example 635, N-(4-fluoro-3-methylphenyl)-1,2,4-trimetthyl-5-(2-((1-(4-methylthiazol-2-yl)cyclopentyl)amino)-2-oxoacetyl)-1H-pyrrole-3-carboxamide] | < 0.05 | > 30 |
| Cc1cc(NC(=O)c2c(C)c(C(=O)C(=O)NC(C)(C)C(F)(F)F)n3c2CCCC3)cnc1F [Example 468, N-(6-fluoro-5-methylpyridin-3-yl)-2-methyl-3-(2-oxo-2-((1,1,1-trifluoro-2-methylpropan-2-yl)amino)acetyl)-5,6,7,8-tetrahydroindolizine-1-carboxamide] | 0.05 to 0.499 | > 30 |
| Cc1cc(NC(=O)c2c(C)c(C(=O)C(=O)NCC(C)(C)N3CCOCC3)n(C)c2C)ccc1F [Example 352, N-(4-fluoro-3-methylphenyl)-1,2,4-trimethyl-5-(2-((2-methyl-2-morpholinopropyl)amino)-2-oxoacetyl)-1H-pyrrole-3-carboxamide] | 0.05 to 0.499 | > 30 |
| Cc1cc(NC(=O)c2c(Cl)c(C(=O)C(=O)NC(C)(C)C)n3c2CCCC3)ccc1F [Example 489] | < 0.05 | > 30 |
| Cc1cc(NC(=O)c2c(C)c(C(=O)C(=O)N[C@H]3CC[C@](O)(C(F)(F)F)CC3)n(C)c2C)ccc1F [Example 221, N-(4-fluoro-3-methylphenyl)-5-(2-(((1s,4s)-4-hydroxy-4-(trifluoromethyl)cyclohexyl)amino)-2-oxoacetyl)-1,2,4-trimethyl-1H-pyrrole-3-carboxamide] | < 0.05 | 5 to 30 |
| Cc1cc(NC(=O)c2c(C)c(C(=O)C(=O)NC(C)(C)C(N)=O)n(C)c2C)ccc1F [Example 36, 5-(2-((1-amino-2-methyl-1-oxopropan-2-yl)amino)-2-oxoacetyl)-N-(4-fluoro-3-methylphenyl)-1,2,4-trimethyl-1H-pyrrole-3-carboxamide] | < 0.05 | > 30 |
| COC(=O)[C@@H](NC(=O)C(=O)c1c(C)c(C(=O)Nc2ccc(F)c(C)c2)c(C)n1C)[C@@H](C)O [Example 27, methyl (2-(4-((4-fluoro-3-methylphenyl)carbamoyl)-1,3,5-trimethyl-1H-pyrrol-2-yl)-2-oxoacetyl)-L-threoninate] | > 1 | > 30 |
| Cc1c(C(=O)Nc2ccc(F)nc2)c(C)n(C)c1C(=O)C(=O)N[C@H](C)C(F)(F)F [Example 166, (R)-N-(6-fluoropyridin-3-yl)-1,2,4-trimethyl-5-(2-oxo-2-((1,1,1-trifluoropropan-2-yl)amino)acetyl)-1H-pyrrole-3-carboxamide] | < 0.05 | > 30 |
| Cc1cc(NC(=O)c2c(C)c(C(=O)C(=O)NC3(C(=O)N[C@]4(C)C[C@H](O)C4)CCOCC3)n(C)c2C)ccc1F [Example 683, N-(4-fluoro-3-methylphenyl)-5-(2-((4-(((1s,3s)-3-hydroxy-1-methylcyclobutyl)carbamoyl)tetrahydro-2H-pyran-4-yl)amino)-2-oxoacetyl)-1,2,4-trimethyl-1H-pyrrole-3-carboxamide] | < 0.05 | > 30 |
| Cc1cc(NC(=O)c2c(Cl)c(C(=O)C(=O)N[C@H]3CCC[C@H]3O)n3c2CCC3)ccc1F [Example 547, 6-chloro-N-(4-fluoro-3-methylphenyl)-5-(2-(((1S,2R)-2-hydroxycyclopentyl)amino)-2-oxoacetyl)-2,3-dihydro-1H-pyrrolizine-7-carboxamide] | 0.05 to 0.499 | 5 to 30 |
| Cc1cc(NC(=O)c2c(C)c(C(=O)C(=O)N[C@@H]3CCCN(S(C)(=O)=O)C3)n(C)c2C)ccc1F [Example 640] | < 0.05 | 5 to 30 |
| Cc1cc(NC(=O)c2cc(C(=O)C(=O)N[C@H](C)C(F)(F)F)n3c2CCCC3)ccc1F [Example 408, (R)-N-(4-fluoro-3-methylphenyl)-3-(2-oxo-2-((1,1,1-trifluoropropan-2-yl)amino)acetyl)-5,6,7,8-tetrahydroindolizine-1-carboxamide] | 0.05 to 0.499 | > 30 |
| Cc1cc(NC(=O)c2c(C)c(C(=O)C(=O)NC3CCN(c4ncccn4)CC3)n(C)c2C)ccc1F [Example 658] | < 0.05 | 5 to 30 |
| Cc1cc(NC(=O)c2c(C)c(C(=O)C(=O)NC3(C)C(=O)NCC34CC4)n(C)c2C)ccc1F (stereo not drawn) [Example 680, N-(4-fluoro-3-methylphenyl)-1,2,4-trimethyl-5-(2-((7-methyl-6-oxo-5-azaspiro[2.4]heptan-7-yl)amino)-2-oxoacetyl)-1H-pyrrole-3-carboxamide] | < 0.05 | > 30 |
| COc1c(C(=O)Nc2ccc(F)c(F)c2)c(C)n(C)c1C(=O)C(=O)NC1(C)CC(F)(F)C1 [Example 379, 5-(2-((3,3-difluoro-1-methylcyclobutyl)amino)-2-oxoacetyl)-N-(3,4-difluorophenyl)-4-methoxy-1,2-dimethyl-1H-pyrrole-3-carboxamide] | 0.05 to 0.499 | > 30 |
| Cc1cc(NC(=O)c2c(C)c(C(=O)C(=O)NC(C)(C)C(N)=O)n(CCF)c2C)ccc1F [Example 117, 5-(2-((1-amino-2-methyl-1-oxopropan-2-yl)amino)-2-oxoacetyl)-N-(4-fluoro-3-methylphenyl)-1-(2-fluoroethyl)-2,4-dimethyl-1H-pyrrole-3-carboxamide] | 0.05 to 0.499 | > 30 |
| Cc1cc(NC(=O)c2c(C)c(C(=O)C(=O)N[C@H]3CC[C@@](C)(O)CC3)n(C)c2C)ccc1F [Example 214, N-(4-fluoro-3-methylphenyl)-5-(2-(((1s,4s)-4-hydroxy-4-methylcyclohexyl)amino)-2-oxoacetyl)-1,2,4-trimethyl-1H-pyrrole-3-carboxamide] | < 0.05 | > 30 |
| Cc1cc(NC(=O)c2c(C)c(C(=O)C(=O)Nc3cccnc3)n3c2CCCC3)ccc1F [Example 739, N-(4-fluoro-3-methylphenyl)-2-methyl-3-(2-oxo-2-(pyridin-3-ylamino)acetyl)-5,6,7,8-tetrahydroindolizine-1-carboxamide] | 0.05 to 0.499 | > 30 |
| Cc1c(C(=O)Nc2ccc(F)c(Cl)c2)c2n(c1C(=O)C(=O)NC1(CO)CC(F)(F)C1)CCCC2 [Example 465, N-(3-chloro-4-fluorophenyl)-3-(2-((3,3-difluoro-1-(hydroxymethyl)cyclobutyl)amino)-2-oxoacetyl)-2-methyl-5,,6,7,8-tetrahydroindolizine-1-carboxamide] | < 0.05 | 5 to 30 |
| Cc1c(C(=O)Nc2ccc(F)cc2)c(C)n(C)c1C(=O)C(=O)N[C@H](C)C(F)(F)F [Example 725, (R)-N-(4-fluorophenyl)-1,2,4-trimethyl-5-(2-oxo-2-((1,1,1-trifluoropropan-2-yl)amino)acetyl)-1H-pyrrole-3-carboxamide] | < 0.05 | > 30 |
| Cc1cc(NC(=O)c2c(C)c(C(=O)C(=O)NC3(c4noc(C(F)F)n4)CCC3)n(C)c2C)cnc1F [Example 159, 5-(2-((1-(5-(difluoromethyl)-1,2,4-oxadiazol-3-yl)cyclobutyl)amino)-2-oxoacetyl)-N-(6-fluoro-5-methylpyridin-3-yl)-1,2,4-trimethyl-1H-pyrrole-3-carboxamide] | < 0.05 | > 30 |
